Series [1] in a line: Molar enthalpy of transition or fusion. To be noted: Crystal; DSC.
For series [2] the following is noted: Crystal; DTA.

Numbers after ± are expanded uncertainties.

For `NC(=O)C[C@H](N)C(=O)O` [L-asparagine], the “Molar enthalpy of transition or fusion” value in series [1] amounted to 26.9 ± 1.53 kcal/mol. For the same compound, the Normal melting temperature in series [2] was determined as 210.20 ± 3.2 °C.

`NC(=O)CC[C@H](N)C(=O)O` [L-glutamine]: in series [1], the “Molar enthalpy of transition or fusion” value worked out at 6.93 ± 0.884 kcal/mol. For the same compound, the Normal melting temperature in series [2] was found to be 182.20 ± 3.4 °C.

Values taken from the NIST ThermoML archive (doi:10.1016/j.tca.2009.08.017).
